Assay results from ChEMBL document CHEMBL3044888, “Fungicidal activity of indole derivatives against some plant pathogenic fungi” (J Pestic Sci, 2010).
Converted amounts (≈) assume the structure as drawn.

Columns and labels:
[1] = test system: Globisporangium debaryanum; assay: In vivo effect on peroxidase activity in Pythium debaryanum assessed as RNA content at 0.25 times of IC50 concentration (reference value: 32.2 +/- 0.7 mg/l); assay type: functional
Rhizoctonia solani [2] = assay: In vivo effect on peroxidase activity in Rhizoctonia solani assessed as RNA content at 0.5 times of IC50 concentration (reference value: 25 +/- 0.7 mg/l); assay type: functional
Macrophomina phaseolina [3] = assay: In vivo effect on peroxidase activity in Macrophomina phaseoli assessed as non-reducing sugar content per gram of dry hyphal at 0.1 times of IC50 concentration (reference value: 12 +/- 0.8 mg/g of dry weight); assay type: functional
Macrophomina phaseolina [4] = assay: In vivo effect on peroxidase activity in Macrophomina phaseoli assessed as reduced sugar content per gram of dry hyphal at 0.1 times of IC50 concentration (reference value: 7.3 +/- 0.5 mg/g of dry weight); assay type: functional
Macrophomina phaseolina [5] = assay: In vivo effect on peroxidase activity in Macrophomina phaseoli assessed as RNA content at 1 times of IC50 concentration (reference value: 16.1 +/- 0.4 mg/l); assay type: functional
Macrophomina phaseolina [6] = assay: Fungicidal activity against Macrophomina phaseoli assessed as inhibition of hyphal growth by radial growth test; assay type: functional, organism-based
Fusarium culmorum [7] = assay: Fungicidal activity against Fusarium culmorum assessed as inhibition of hyphal growth by radial growth test; assay type: functional, organism-based
Rhizoctonia solani [8] = assay: In vivo effect on peroxidase activity in Rhizoctonia solani assessed as total soluble sugar content per gram of dry hyphal at 0.1 times of IC50 concentration (reference value: 20.1 +/- 0.8 mg/g of dry weight); assay type: functional
Fusarium culmorum [9] = assay: In vivo effect on peroxidase activity in Fusarium culmorum assessed as RNA content at 2 times of IC50 concentration (reference value: 51.5 +/- 1.5 mg/l); assay type: functional
[10] = test system: Globisporangium debaryanum; assay: In vivo effect on peroxidase activity in Pythium debaryanum assessed as DNA content at 1 times of IC50 concentration (reference value: 31 +/- 0.8 mg/l); assay type: functional
[11] = Inhibition of polyphenoloxidase activity in Macrophomina phaseoli; set-up: species or system Macrophomina phaseolina
Fusarium culmorum [12] = assay: Inhibition of peroxidase activity in Fusarium culmorum at 0.25 times of IC50 concentration
Macrophomina phaseolina [13] = assay: In vivo effect on peroxidase activity in Macrophomina phaseoli assessed as reduced sugar content per gram of dry hyphal at 0.25 times of IC50 concentration (reference value: 7.3 +/- 0.5 mg/g of dry weight); assay type: functional
[14] = test system: Globisporangium debaryanum; assay: In vivo effect on peroxidase activity in Pythium debaryanum assessed as DNA content at 0.1 times of IC50 concentration (reference value: 31 +/- 0.8 mg/l); assay type: functional
Macrophomina phaseolina [15] = assay: In vivo effect on peroxidase activity in Macrophomina phaseoli assessed as DNA content at 2 times of IC50 concentration (reference value: 15.5 +/- 0.5 mg/l); assay type: functional
Macrophomina phaseolina [16] = assay: In vivo effect on peroxidase activity in Macrophomina phaseoli assessed as reduced sugar content per gram of dry hyphal at 1 times of IC50 concentration (reference value: 7.3 +/- 0.5 mg/g of dry weight); assay type: functional
[17] = test system: Globisporangium debaryanum; assay: In vivo effect on peroxidase activity in Pythium debaryanum assessed as RNA content at 1 times of IC50 concentration (reference value: 32.2 +/- 0.7 mg/l); assay type: functional
Macrophomina phaseolina [18] = assay: In vivo effect on peroxidase activity in Macrophomina phaseoli assessed as total soluble sugar content per gram of dry hyphal at 0.25 times of IC50 concentration (reference value: 19.3 +/- 0.7 mg/g of dry weight); assay type: functional
Macrophomina phaseolina [19] = assay: In vivo effect on peroxidase activity in Macrophomina phaseoli assessed as non-reducing sugar content per gram of dry hyphal at 1 times of IC50 concentration (reference value: 12 +/- 0.8 mg/g of dry weight); assay type: functional
Rhizoctonia solani [20] = assay: In vivo effect on peroxidase activity in Rhizoctonia solani assessed as total soluble sugar content per gram of dry hyphal at 0.25 times of IC50 concentration (reference value: 20.1 +/- 0.8 mg/g of dry weight); assay type: functional
Rhizoctonia solani [21] = assay: In vivo effect on peroxidase activity in Rhizoctonia solani assessed as non-reducing sugar content per gram of dry hyphal at 0.5 times of IC50 concentration (reference value: 2.8 +/- 0.2 mg/g of dry weight); assay type: functional
Rhizoctonia solani [22] = assay: In vivo effect on peroxidase activity in Rhizoctonia solani assessed as DNA content at 0.5 times of IC50 concentration (reference value: 24 +/- 0.7 mg/l); assay type: functional
Rhizoctonia solani [23] = assay: In vivo effect on peroxidase activity in Rhizoctonia solani assessed as reduced sugar content per gram of dry hyphal at 1 times of IC50 concentration (reference value: 17.3 +/- 1 mg/g of dry weight); assay type: functional
Fusarium culmorum [24] = assay: In vivo effect on peroxidase activity in Fusarium culmorum assessed as DNA content at 0.25 times of IC50 concentration (reference value: 49.5 +/- 1.6 mg/l); assay type: functional
[25] = Activation of peroxidase activity in Rhizoctonia solani
Rhizoctonia solani [26] = assay: In vivo effect on peroxidase activity in Rhizoctonia solani assessed as non-reducing sugar content per gram of dry hyphal at 1 times of IC50 concentration (reference value: 2.8 +/- 0.2 mg/g of dry weight); assay type: functional
Rhizoctonia solani [27] = assay: In vivo effect on peroxidase activity in Rhizoctonia solani assessed as non-reducing sugar content per gram of dry hyphal at 0.25 times of IC50 concentration (reference value: 2.8 +/- 0.2 mg/g of dry weight); assay type: functional
[28] = test system: Globisporangium debaryanum; assay: Inhibition of peroxidase activity in Pythium debaryanum at 0.5 times of IC50 concentration
Rhizoctonia solani [29] = assay: In vivo effect on peroxidase activity in Rhizoctonia solani assessed as RNA content at 1 times of IC50 concentration (reference value: 25 +/- 0.7 mg/l); assay type: functional
[30] = test system: Globisporangium debaryanum; assay: In vivo effect on peroxidase activity in Pythium debaryanum assessed as DNA content at 0.5 times of IC50 concentration (reference value: 31 +/- 0.8 mg/l); assay type: functional
Fusarium culmorum [31] = assay: In vivo effect on peroxidase activity in Fusarium culmorum assessed as RNA content at 0.5 times of IC50 concentration (reference value: 51.5 +/- 1.5 mg/l); assay type: functional
Rhizoctonia solani [32] = assay: In vivo effect on peroxidase activity in Rhizoctonia solani assessed as DNA content at 2 times of IC50 concentration (reference value: 24 +/- 0.7 mg/l); assay type: functional
Rhizoctonia solani [33] = assay: In vivo effect on peroxidase activity in Rhizoctonia solani assessed as DNA content at 1 times of IC50 concentration (reference value: 24 +/- 0.7 mg/l); assay type: functional
Macrophomina phaseolina [34] = assay: In vivo effect on peroxidase activity in Macrophomina phaseoli assessed as non-reducing sugar content per gram of dry hyphal at 0.5 times of IC50 concentration (reference value: 12 +/- 0.8 mg/g of dry weight); assay type: functional
Rhizoctonia solani [35] = assay: In vivo effect on peroxidase activity in Rhizoctonia solani assessed as total soluble sugar content per gram of dry hyphal at 0.5 times of IC50 concentration (reference value: 20.1 +/- 0.8 mg/g of dry weight); assay type: functional
[36] = test system: Globisporangium debaryanum; assay: Inhibition of peroxidase activity in Pythium debaryanum at 0.1 times of IC50 concentration
Macrophomina phaseolina [37] = assay: In vivo effect on peroxidase activity in Macrophomina phaseoli assessed as RNA content at 2 times of IC50 concentration (reference value: 16.1 +/- 0.4 mg/l); assay type: functional

SMILES	Activity [1] [mg/L]	Activity (Rhizoctonia solani [2]) [mg/L]	Activity (Macrophomina phaseolina [3]) [mg]	Activity (Macrophomina phaseolina [4]) [mg]	Activity (Macrophomina phaseolina [5]) [mg/L]	IC50 (Macrophomina phaseolina [6]) [µg/mL]	IC50 (Fusarium culmorum [7]) [µg/mL]	Activity (Rhizoctonia solani [8]) [mg]	Activity (Fusarium culmorum [9]) [mg/L]	Activity [10] [mg/L]	IC50 [11] [µg/mL]	inhibition (Fusarium culmorum [12]) [%]	Activity (Macrophomina phaseolina [13]) [mg]	Activity [14] [mg/L]	Activity (Macrophomina phaseolina [15]) [mg/L]	Activity (Macrophomina phaseolina [16]) [mg]	Activity [17] [mg/L]	Activity (Macrophomina phaseolina [18]) [mg]	Activity (Macrophomina phaseolina [19]) [mg]	Activity (Rhizoctonia solani [20]) [mg]	also measured
c1ccc(-c2cc3ccccc3[nH]2)cc1 [2-PHENYL-1H-INDOLE]	19.8	30.8	2.4	6.3	6.3	96 (≈ 497 µM)	67.4 (≈ 349 µM)	58.4	24.7	29.4	117.1 (≈ 606 µM)	26.2	4.6	30.9	5.7	5.8	30.6	9.7	1.3	71.8	Activity (Rhizoctonia solani [21]): 3.1 mg; Activity (Rhizoctonia solani [22]): 29.6 mg/L; Activity (Rhizoctonia solani [23]): 7.7 mg; Activity (Fusarium culmorum [24]): 23.7 mg/L; AC50 [25]: 14.5 µg/mL (≈ 75 µM); Activity (Rhizoctonia solani [26]): 2.2 mg; Activity (Rhizoctonia solani [27]): 11.4 mg; inhibition [28]: 0%; Activity (Rhizoctonia solani [29]): 32.2 mg/L; Activity [30]: 10.9 mg/L; Activity (Fusarium culmorum [31]): 18.7 mg/L; Activity (Rhizoctonia solani [32]): 27 mg/L; Activity (Rhizoctonia solani [33]): 30.9 mg/L; Activity (Macrophomina phaseolina [34]): 1.4 mg; Activity (Rhizoctonia solani [35]): 19.1 mg; inhibition [36]: 19.3%; Activity (Macrophomina phaseolina [37]): 5.9 mg/L
CC(=O)n1c(-c2ccccc2)cc2ccccc21	26.8	27.9	1.7	2.5	8.5	93 (≈ 395 µM)	86.7 (≈ 368 µM)	12.2	20.3	17.5	80.2 (≈ 341 µM)	23.7	14.8	26	6.5	25.8	18.2	22.2	8.9	10.8	Activity (Rhizoctonia solani [21]): 0.4 mg; Activity (Rhizoctonia solani [22]): 26.6 mg/L; Activity (Rhizoctonia solani [23]): 2.6 mg; Activity (Fusarium culmorum [24]): 29.9 mg/L; AC50 [25]: < 11.7 µg/mL; Activity (Rhizoctonia solani [26]): 0.2 mg; Activity (Rhizoctonia solani [27]): 1.2 mg; inhibition [28]: 1.3%; Activity (Rhizoctonia solani [29]): 32.6 mg/L; Activity [30]: 11.3 mg/L; Activity (Fusarium culmorum [31]): 29.2 mg/L; Activity (Rhizoctonia solani [32]): 34.7 mg/L; Activity (Rhizoctonia solani [33]): 31.4 mg/L; Activity (Macrophomina phaseolina [34]): 10.2 mg; Activity (Rhizoctonia solani [35]): 6 mg; inhibition [36]: 0%; Activity (Macrophomina phaseolina [37]): 6.7 mg/L
